The values below come from US20140242712A1, “FLUORESCENCE DETECTION OF POISON OAK OIL” (priority 1999, published 2014).

The conditions of series [1]: in protic solvent; cited from earlier work.
Series [2] in a line: storage stability of the boronic acid on exposure to air. It counts as physicochemical. The settings on record: without taking any precautions to avoid exposure to air.

As for `Cc1c(C)c2c(c(C)c1O)CCC(C)(C(=O)O)O2` (stereo not shown) [TROLOX], the “rate constant k of reduction of nitroxide by phenols (hydrogen transfer)” value in series [1] is 0.2 M⁻¹ s⁻¹.
Take `CCCCB(O)O` [n-butyl boronic acid]: in series [2], the “stability of the sample on storage” value is listed as “stable for over a year”.
For the molecule `Cc1cc(C(C)(C)C)c(O)c(C(C)(C)C)c1` [BHT], in series [1], the “rate constant k of reduction of nitroxide by phenols (hydrogen transfer)” value was 0.003 M⁻¹ s⁻¹.
With `O=C(O)c1cc(O)c(O)c(O)c1` [gallic acid], in series [1], the “rate constant k of reduction of nitroxide by phenols (hydrogen transfer)” value is 0.003 M⁻¹ s⁻¹.
